# Measurements: patent US7504399B2, “Piperazine enamines as antiviral agents” (priority 2006, dated 2009)
# Test system: HIV-1 single-round infectious reporter virus
# Assay: Single-round infectious HIV-1 luciferase reporter virus infection assay in HeLa CD4 cells
# Assay type: cell-based
# Conditions: Human immunodeficiency virus 1, HeLa, 72 h, read-out: EC50 Group from Table 1
# Experimental: • Virus production-Human embryonic Kidney cell line, 293T, was propagated in Dulbecco's Modified Eagle Medium (Invitrogen, Carlsbad, Calif.) containing 10% fetal Bovine serum (FBS, Sigma, St. Louis, Mo.). • Virus infection—Human epithelial cell line, HeLa, expressing the HIV-1 receptor CD4 was propagated in Dulbecco's Modified Eagle Medium (Invitrogen, Carlsbad, Calif.) containing 10% fetal Bovine serum (FBS, Sigma, St. Louis, Mo.) and supplemented with 0.2 mg/mL Geneticin (Invitrogen, Carlsbad, Calif.). Virus-Single-round infectious reporter virus was produced by co-transfecting human embryonic Kidney 293 cells with an HIV-1 envelope DNA expression vector and a proviral cDNA containing an envelope deletion mutation and the luciferase reporter gene inserted in place of HIV-1 nef sequences (Chen et al., Ref. 41). Transfections were performed using lipofectAMINE PLUS reagent as described by the manufacturer (Invitrogen, Carlsbad, Calif.). Experiment • 1. HeLa CD4 cells were plated in 96 well plates at a cell density of 1×10^4 cells per well in 100 μl Dulbecco's Modified Eagle Medium containing 10% fetal Bovine serum and incubated overnight. • 2. Compound was added in a 2 μl dimethylsulfoxide solution, so that the final assay concentration would be ≦10 μM. • 3. 100 μl of single-round infectious reporter virus in Dulbecco's Modified Eagle Medium was then added to the plated cells and compound at an approximate multiplicity of infection (MOI) of 0.01, resulting in a final volume of 200 μl per well. • 4. Virally-infected cells were incubated at 37 degrees Celsius, in a CO2 incubator, and harvested 72 h after infection. • 5. Viral infection was monitored by measuring luciferase expression from viral DNA in the infected cells using a luciferase reporter gene assay kit, as described by the manufacturer (Roche Molecular Biochemicals, Indianapolis, Ind.). Infected cell supernatants were removed and 50 μl of lysis buffer was added per well. After 15 minutes, 50 μl of freshly-reconstituted luciferase assay reagent was added per well. Luciferase activity was then quantified by measuring luminescence using a Wallac microbeta scintillation counter. • 6. The percent inhibition for each compound was calculated by quantifying the level of luciferase expression in cells infected in the presence of each compound as a percentage of that observed for cells infected in the absence of compound and subtracting such a determined value from 100. • 7. An EC50 provides a method for comparing the antiviral potency of the compounds of this disclosure. The effective concentration for fifty percent inhibition (EC50) was calculated with the Microsoft Excel Xlfit curve fitting software. For each compound, curves were generated from percent inhibition calculated at 10 different concentrations by using a four paramenter logistic model (model 205). Table 1 is the key for the data in Table 2. Results
row,SMILES,EC50 [µM]
1,N#C/C=C(\c1ccccc1)N1CCN(C(=O)C(=O)c2c[nH]c3ccccc23)CC1 [EN-01],< 1
2,"N#CC(C#N)=C(c1ccccc1)N1CCN(C(=O)C(=O)c2c[nH]c3ccccc23)CC1 [EN-02, 2-((4-(2-(1H-indol-3-yl)-2-oxoacetyl)piperazin-1-yl)(phenyl)methylene)malononitrile]",< 1
3,N#C/C=C(\c1ccccc1)N1CCN(C(=O)C(=O)c2c[nH]c3c(Br)ccc(F)c23)CC1 [EN-03],< 1
4,COc1cnc(-n2cnc(C)n2)c2[nH]cc(C(=O)C(=O)N3CCN(/C(=C/C#N)c4ccccc4)CC3)c12 [EN-05],< 1
5,COc1cnc(-n2ccnn2)c2[nH]cc(C(=O)C(=O)N3CCN(/C(=C/C#N)c4ccccc4)CC3)c12 [EN-06],< 1
6,COc1cnc(-n2ccnn2)c2[nH]cc(C(=O)C(=O)N3CCN(C(=C(C#N)C#N)c4ccccc4)CC3)c12 [EN-07],< 1
7,"N#CC(C#N)=C(c1ccccc1)N1CCN(C(=O)C(=O)c2c[nH]c3c(-n4ccnn4)ncc(F)c23)CC1 [EN-08, 2-((4-(2-(4-fluoro-7-(1H-1,2,3-triazol-1-yl)-1H-pyrrolo[2,3-c]pyridin-3-yl)-2-oxoacetyl)piperazin-1-yl)(phenyl)methylene)malononitrile]",< 1
8,O=C(O)/C=C(\c1ccccc1)N1CCN(C(=O)C(=O)c2c[nH]c3cccc(F)c23)CC1 [EN-09],< 1
9,COc1cnc(Cl)c2[nH]cc(C(=O)C(=O)N3CCN(C(=C(C#N)C#N)c4ccccc4)CC3)c12 [EN-10],< 1
10,"N#CC(C#N)=C(c1ccccc1)N1CCN(C(=O)C(=O)c2c[nH]c3cccc(F)c23)CC1 [EN-11, 2-((4-(2-(4-fluoro-1H-indol-3-yl)-2-oxoacetyl)piperazin-1-yl)(phenyl)methylene)malononitrile]",< 1
11,COc1cnc(Cl)c2[nH]cc(C(=O)C(=O)N3CCN(/C(=C/C#N)c4ccccc4)CC3)c12 [EN-13],< 1
